Laboratory results from publication PMC11721293 (JCI Insight, 2025).
Several values for one entry are separate records, joined by “and”; a condition that tells them apart may be missing. Equal values may be shown once.

Columns and labels:
omicron BA4.6 variant = assay: Drug combination, omicron BA4.6 in VeroE6, qRT-PCR; format: cell-based, SARS-CoV-2; settings: replicates
SARS-CoV-2-nLUC [1] = assay: microbe, parasite or virus in culture; format: cell-based; settings: GGTI vs DMSO; replicates
[2] = tested on: SARS-CoV-2-nLuc in cells overexpressing WT FTase; assay: microbe, parasite or virus in culture; format: cell-based; settings: for luciferase activity (relative): WT
[3] = tested on: SARS-CoV-2-nLuc in cells overexpressing W106R mutant FTase; format: cell-based
SARS-CoV-2-nLUC [4] = format: cell-based

## CC(C)(C)[C@H](NC(=O)C(F)(F)F)C(=O)N1C[C@H]2[C@@H]([C@H]1C(=O)N[C@H](C#N)C[C@@H]1CCNC1=O)C2(C)C [NRTV, nirmatrelvir]
Omicron BA4.6 variant; LNF 0/ NRTV 0.5
  S3E viral level relative to LNF 0/ NRTV 0: 47.9329 and 37.1942 and 53.3183
Omicron BA4.6 variant; LNF 0/ NRTV 5
  S3E viral level relative to LNF 0/ NRTV 0: 1.354 and 1.072 and 1.497

## Cc1nc[nH]c1CN1CCN(C(=O)N[C@@H](CC(C)C)C(=O)O)[C@@H](Cc2ccccc2)C1=O [GGTI2418]
SARS-CoV-2-nLUC [1]
  signal relative to DMSO (sheet S7A): 90.3685 and 93.0121 and 91.627 and 90.3081

## NC(=O)N1CCC(CC(=O)N2CCC([C@H]3c4ncc(Br)cc4CCc4cc(Cl)cc(Br)c43)CC2)CC1 [LNF, lonafarnib]
Omicron BA4.6 variant; LNF 1/ NRTV 0
  S3E viral level relative to LNF 0/ NRTV 0: 69.1766 and 49.5863 and 50.5202
Omicron BA4.6 variant; LNF 1/ RDV 0
  S3D viral level relative to LNF 0/ RDV 0: 32.8373 and 32.7511 and 35.1123
Omicron BA4.6 variant; LNF 10/ NRTV 0
  S3E viral level relative to LNF 0/ NRTV 0: 2.995 and 4.305 and 4.101
Omicron BA4.6 variant; LNF 10/ RDV 0
  S3D viral level relative to LNF 0/ RDV 0: 2.77 and 3.103 and 2.149
[2]; Severe acute respiratory syndrome coronavirus 2, Vero C1008, VeroE6 transfected with WT FNTB, 24 h
  IC50: 1.1 µM
[2]; Log[LNF} mM (printed) 0.09691
  luciferase activity (relative): 63.7112 and 63.9819 and 49.739 and 50.5313
[2]; Log[LNF} mM (printed) 0.39794
  luciferase activity (relative): 34.2371 and 34.2326 and 46.1621 and 47.4504
[2]; Log[LNF} mM (printed) 0.69897
  luciferase activity (relative): 15.3696 and 15.2721 and 16.4684 and 16.5029
[2]; Log[LNF} mM (printed) 1
  luciferase activity (relative): 6.188 and 5.457 and 5.008 and 4.944
[2]; Log[LNF} mM (printed) -0.20412
  luciferase activity (relative): 54.7411 and 54.7908 and 56.706 and 57.079
[2]; Log[LNF} mM (printed) -0.50515
  luciferase activity (relative): 62.6012 and 61.9491 and 68.0615 and 68.2295
[2]; Log[LNF} mM (printed) -0.80618
  luciferase activity (relative): 99.8257 and 98.9 and 84.2901 and 84.2134
[2]; Log[LNF} mM (printed) -1.10721
  luciferase activity (relative): 97.017 and 96.4383 and 93.6225 and 92.4394
[3]
  fold less effective in cells expressing mutant FTase vs WT: ~2 fold
[3]; read-out: Mut IC50
  IC50: 2.2 µM

## CN(C)C(=O)COC(=O)Cc1ccc(OC(=O)c2ccc(NC(=N)N)cc2)cc1 [camostat]
SARS-CoV-2-nLUC [4]
  infection signal (sheet S4F): 74.3368 and 81.9164 and 86.4071 and 85.3028 and 90.7155 and 94.6132 and 81.833 and 79.6415
